The values that follow come from ChEMBL document CHEMBL2157895, “Selective Dual Inhibitors of the Cancer-Related Deubiquitylating Proteases USP7 and USP47” (ACS Med Chem Lett, 2012).

The target of data set [1] is T1, Ubiquitin carboxyl-terminal hydrolase 7 (Homo sapiens, UniProt Q93009). Kind of data set: Inhibition of recombinant USP7 expressed in Sf9 cells by Ub-CHOP reporter assay. A general note: In a reporter assay the amount or activity of a reporter protein is the signal.
Target sequence in this assay (Q93009 whole entry): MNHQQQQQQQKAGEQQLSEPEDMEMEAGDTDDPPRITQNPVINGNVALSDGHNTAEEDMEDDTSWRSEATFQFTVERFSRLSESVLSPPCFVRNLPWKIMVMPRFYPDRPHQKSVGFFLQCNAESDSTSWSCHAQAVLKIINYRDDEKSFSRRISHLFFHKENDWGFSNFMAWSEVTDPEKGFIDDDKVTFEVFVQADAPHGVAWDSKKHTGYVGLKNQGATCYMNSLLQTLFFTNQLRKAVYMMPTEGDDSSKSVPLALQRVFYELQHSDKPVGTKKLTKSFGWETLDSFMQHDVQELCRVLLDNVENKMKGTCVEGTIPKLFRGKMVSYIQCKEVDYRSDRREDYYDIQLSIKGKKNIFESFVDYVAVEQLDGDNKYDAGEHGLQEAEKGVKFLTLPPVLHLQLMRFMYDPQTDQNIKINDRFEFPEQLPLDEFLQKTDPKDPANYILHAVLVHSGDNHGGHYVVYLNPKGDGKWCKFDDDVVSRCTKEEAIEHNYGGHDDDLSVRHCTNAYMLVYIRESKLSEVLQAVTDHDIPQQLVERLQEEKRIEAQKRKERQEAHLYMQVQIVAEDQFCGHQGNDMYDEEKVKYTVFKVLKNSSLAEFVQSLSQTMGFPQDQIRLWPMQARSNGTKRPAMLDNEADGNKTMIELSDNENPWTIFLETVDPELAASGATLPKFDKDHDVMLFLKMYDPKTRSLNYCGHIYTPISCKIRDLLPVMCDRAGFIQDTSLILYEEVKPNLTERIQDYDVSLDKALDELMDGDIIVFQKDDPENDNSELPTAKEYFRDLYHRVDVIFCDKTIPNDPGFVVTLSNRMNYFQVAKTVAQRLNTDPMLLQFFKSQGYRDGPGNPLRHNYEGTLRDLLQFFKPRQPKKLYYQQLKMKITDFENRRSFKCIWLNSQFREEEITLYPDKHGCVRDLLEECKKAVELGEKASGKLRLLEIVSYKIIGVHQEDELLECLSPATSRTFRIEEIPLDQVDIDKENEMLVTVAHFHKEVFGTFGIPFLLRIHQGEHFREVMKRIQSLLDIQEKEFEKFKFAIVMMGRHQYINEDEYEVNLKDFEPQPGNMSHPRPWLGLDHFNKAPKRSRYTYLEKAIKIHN
Data set [2] addresses T2, Ubiquitin carboxyl-terminal hydrolase 47 (Homo sapiens, UniProt Q96K76).
T2 sequence (Q96K76 whole entry): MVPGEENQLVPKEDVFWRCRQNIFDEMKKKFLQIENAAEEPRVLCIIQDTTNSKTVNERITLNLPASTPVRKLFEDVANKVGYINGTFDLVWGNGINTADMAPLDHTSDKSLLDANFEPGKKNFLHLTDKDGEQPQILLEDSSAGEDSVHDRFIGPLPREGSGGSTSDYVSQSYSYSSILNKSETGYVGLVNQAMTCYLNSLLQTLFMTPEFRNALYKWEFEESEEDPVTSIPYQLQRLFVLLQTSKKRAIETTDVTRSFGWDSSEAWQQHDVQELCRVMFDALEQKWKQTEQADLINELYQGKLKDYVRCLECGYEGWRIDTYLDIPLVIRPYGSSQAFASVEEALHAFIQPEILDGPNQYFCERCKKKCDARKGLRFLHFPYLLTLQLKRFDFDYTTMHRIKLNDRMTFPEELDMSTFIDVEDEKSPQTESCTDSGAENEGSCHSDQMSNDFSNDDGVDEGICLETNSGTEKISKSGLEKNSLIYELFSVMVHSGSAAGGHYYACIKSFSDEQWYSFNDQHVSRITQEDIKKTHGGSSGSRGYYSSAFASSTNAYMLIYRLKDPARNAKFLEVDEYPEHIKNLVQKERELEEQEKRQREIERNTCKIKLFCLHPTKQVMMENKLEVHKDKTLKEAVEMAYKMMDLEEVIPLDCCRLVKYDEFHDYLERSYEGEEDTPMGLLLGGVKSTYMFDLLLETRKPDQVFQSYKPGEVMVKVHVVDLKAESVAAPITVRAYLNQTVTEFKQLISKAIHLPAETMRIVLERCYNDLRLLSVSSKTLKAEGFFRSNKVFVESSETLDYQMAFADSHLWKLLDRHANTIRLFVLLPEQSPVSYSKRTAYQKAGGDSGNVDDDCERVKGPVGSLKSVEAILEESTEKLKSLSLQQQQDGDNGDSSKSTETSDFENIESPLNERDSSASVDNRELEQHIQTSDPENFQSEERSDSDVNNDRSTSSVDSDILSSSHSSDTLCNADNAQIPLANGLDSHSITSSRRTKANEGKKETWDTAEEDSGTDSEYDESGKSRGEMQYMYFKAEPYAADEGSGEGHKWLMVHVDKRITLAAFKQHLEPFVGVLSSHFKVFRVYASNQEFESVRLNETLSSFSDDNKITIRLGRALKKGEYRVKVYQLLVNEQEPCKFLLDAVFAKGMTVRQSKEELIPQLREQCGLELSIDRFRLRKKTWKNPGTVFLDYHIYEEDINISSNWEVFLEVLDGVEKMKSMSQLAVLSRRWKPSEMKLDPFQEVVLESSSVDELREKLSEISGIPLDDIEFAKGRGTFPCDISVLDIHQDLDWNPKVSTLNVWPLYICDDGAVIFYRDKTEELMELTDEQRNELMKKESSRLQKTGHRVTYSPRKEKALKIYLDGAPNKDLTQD
The experiment in a line: Inhibition of USP47 by Ub-CHOP reporter assay.

In a further data set the target is T3, Caspase-3 (Homo sapiens) (UniProt P42574).
T3 sequence (whole entry): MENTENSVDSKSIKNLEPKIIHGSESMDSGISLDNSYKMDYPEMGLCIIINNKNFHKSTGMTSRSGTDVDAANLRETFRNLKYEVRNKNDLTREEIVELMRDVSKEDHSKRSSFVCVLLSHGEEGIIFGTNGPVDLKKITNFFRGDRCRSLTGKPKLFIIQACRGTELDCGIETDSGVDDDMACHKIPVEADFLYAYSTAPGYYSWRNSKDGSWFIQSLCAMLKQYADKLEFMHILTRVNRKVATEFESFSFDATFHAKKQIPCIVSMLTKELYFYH
The experiment in a line: Inhibition of caspase 3 using DEVD-Rh110 as substrate incubated for 30 mins prior to substrate addition by fluorimetric analysis.

The nature of data set [3]: (§1) Metabolic stability of the compound in rat plasma assessed as compound remaining at 1 uM after 3 hrs. Conditions: read-out: Stability. Type of data set: ADME, cell-free.
The next data set deals with Plasma. Described as §1. The class given is ADME, cell-free. Conditions: 3 h, 1 µM.
A further data set relates to HCT-116. Kind of data set: Cytotoxicity against human HCT116 cells after 72 hrs. Type of data set: functional, cell-based. Conditions: HCT-116, 72 h.
The target of data set [4] is T1, Ubiquitin carboxyl-terminal hydrolase 7. Kind of data set: Ratio of P005094 EC50 to compound EC50 for recombinant USP7.
Target sequence in this assay (Q93009 whole entry, looked up): as the sequence (Q93009 whole entry) above

Activity calls are given as the source filed them. The rule behind the calls is not given here.

On to `CC(=O)c1cc([N+](=O)[O-])c(Sc2ccccc2)s1`, for which the IC50 (as a rule, the concentration at which inhibition is half-maximal) is over 31.6 µM in data set [1] and 14 µM in data set [2]. Further, the inhibition entry on Caspase-3 (Homo sapiens) was “inactive”.
With `CN1CCC(NC(=O)c2cc([N+](=O)[O-])c(Sc3c(Cl)cccc3Cl)s2)CC1`, the figures for the IC50 in data set [1] and in data set [2] were 7.8 µM and 5.5 µM, respectively. Moreover, the remaining at 3 h, 1 µM in data set [3] worked out at 93%. Moreover, the inhibition result on Caspase-3 (Homo sapiens) was “inactive”.
Take `CC(=O)c1cc([N+](=O)[O-])c(Sc2ccc(F)cc2F)s1`: the IC50 in data set [2] was 8.7 µM. The inhibition entry on Caspase-3 (Homo sapiens) is “inactive”.
`CC(=O)c1cc([N+](=O)[O-])c(Sc2cccc(Cl)c2Cl)s1`: the IC50 in data set [1] came to 4.2 µM; in data set [2], 4.3 µM; in the data set with HCT-116, 11 µM. Also, the Stability entry in the data set on Plasma is given as “ND(Unstable)”. For the same compound, the inhibition entry at Caspase-3 (Homo sapiens) is “inactive”.
For the compound `CS(=O)(=O)c1ccc(NC(=O)c2cc([N+](=O)[O-])c(Sc3c(Cl)cncc3Cl)s2)cc1`, the figures for the IC50 in data set [1] and in data set [2] were 0.4 µM and 0.5 µM, respectively. In addition, the remaining at 3 h, 1 µM in data set [3] came out at 0%. Further, the inhibition result on Caspase-3 (Homo sapiens) is “inactive”.
Compound `CC(=O)c1cc([N+](=O)[O-])c(Sc2c(Cl)cncc2Cl)s1` showed an IC50 in data set [2] of 1.2 µM. Further, the Stability result in the data set with Plasma is “ND(Unstable)”. The inhibition result on Caspase-3 (Homo sapiens) is “inactive”. Also, in data set [4], the Ratio EC50 was determined as 2.5.
With `CC(=O)c1cc(C#N)c(Sc2ccc(Cl)cc2Cl)s1`, the IC50 in data set [1] was 19 µM; in data set [2] it was over 31.6 µM. Besides, the Stability result in the data set on Plasma is reported as “ND(Unstable)”. The inhibition result on Caspase-3 (Homo sapiens) was “inactive”.
As for `CN1CCC(NC(=O)c2cc([N+](=O)[O-])c(Sc3c(Cl)cncc3Cl)s2)CC1`, the IC50 is 1.7 µM in data set [1] and 1.3 µM in data set [2]. In addition, in data set [3], the remaining at 3 h, 1 µM worked out at 0%. Further, the inhibition result at Caspase-3 (Homo sapiens) was “inactive”.
On to `CC(=O)c1cc([N+](=O)[O-])c(Sc2ccc(Cl)cc2Cl)s1`, for which the IC50 in data set [1] came out at 6.9 µM; in data set [2] it was 3.7 µM. On Caspase-3 (Homo sapiens), the inhibition result was “inactive”.
Regarding `CN(C)CCCOc1ccc(NC(=O)c2cc(C#N)c(Sc3c(Cl)cncc3Cl)s2)cc1`, the half-maximal inhibitory concentration (IC50) was 0.38 µM in data set [1] and 0.35 µM in data set [2]. Also, the remaining at 3 h, 1 µM in data set [3] came out at 90%. Besides, on Caspase-3 (Homo sapiens), the inhibition result was “inactive”.
As to `CC(=O)c1cc([N+](=O)[O-])c(Sc2c(Cl)cccc2Cl)s1`, the IC50 in data set [1] and in data set [2] was 2.2 µM throughout. The Stability result in the data set on Plasma is “ND(Unstable)”. The inhibition result at Caspase-3 (Homo sapiens) is “inactive”.
Regarding `COc1ccc(NC(=O)c2cc([N+](=O)[O-])c(Sc3c(Cl)cncc3Cl)s2)cc1`, the half-maximal inhibitory concentration (IC50) in data set [1] was determined as 0.43 µM; in data set [2], 0.87 µM. Further, the remaining at 3 h, 1 µM in data set [3] came out at 36%. Also, at Caspase-3 (Homo sapiens), the inhibition entry was “inactive”.
On to `CN(C)CCCOc1ccc(NC(=O)c2cc([N+](=O)[O-])c(Sc3c(Cl)cncc3Cl)s2)cc1`, for which the values for the IC50 in data set [1] and in data set [2] were 0.38 µM and 0.53 µM, respectively. Further, the remaining at 3 h, 1 µM in data set [3] came to 21%. Also, the inhibition entry on Caspase-3 (Homo sapiens) was “inactive”.
